The structures appear in SMILES notation. pIC50: −log10 of the molar value. Where a name gives a salt, the structure may show the parent alone. Read-outs that look alike come from different tables or passages of the source. Bounds are passed on as bounds.

For one test, the system named is NO synthase. Nature of the test: Assay Protocol for NOS activity: % inhibition at 50 uM (formation of L-[3H]citrulline from L-[3H]arginine). In kind it is biochemical. The protocol:
(§1) Assay Protocol for NOS activity
(§2) NOS activity is measured as the formation of L-[2,3,4,5-^3 H]Citrullinefrom L-[2,3,4,5-^3 H]Arginine. The incubation buffer (100 μL) contained; 100 mM TES, pH 7.5, 5 μM FAD, 5 μM FMN, 10 μM BH4, 0.5 mM NADPH, 0.5 mM DTT, 0.5 mg/mL BSA, 2 mM CaCl2, 10 μg/mL calmodulin (bovine), 1 μM L-Arg, 0.2 μCi L-[2,3,4,5-^3 H]Arg, and the inhibitor in aqueous DMSO (max. 5%). The reaction is initiated by addition of enzyme. Incubations are performed at room temperature for 30 minutes and stopped by the addition of an equal volume of quenching buffer consisting of 200 mM sodium citrate, pH 2.2, 0.02% sodium azide. Reaction products are separated by passing through a cation exchange resin and quantitated as cpm by scintillation counting.

In a further test the target is iNOS (Homo sapiens, UniProt P35228). Nature of the test: NOS activity assay, iNOS (L-[3H]citrulline formation). In kind it is biochemical. The protocol:
as §1, §2

For another test, the target named is ecNOS (Homo sapiens, UniProt P29474). Nature of the test: NOS activity assay, ecNOS (L-[3H]citrulline formation). In kind it is biochemical. The protocol:
as §1, §2

The target in a further test is ncNOS (Homo sapiens, UniProt P29475). Nature of the test: biochemical.
Sequence of ncNOS (P29475 whole entry): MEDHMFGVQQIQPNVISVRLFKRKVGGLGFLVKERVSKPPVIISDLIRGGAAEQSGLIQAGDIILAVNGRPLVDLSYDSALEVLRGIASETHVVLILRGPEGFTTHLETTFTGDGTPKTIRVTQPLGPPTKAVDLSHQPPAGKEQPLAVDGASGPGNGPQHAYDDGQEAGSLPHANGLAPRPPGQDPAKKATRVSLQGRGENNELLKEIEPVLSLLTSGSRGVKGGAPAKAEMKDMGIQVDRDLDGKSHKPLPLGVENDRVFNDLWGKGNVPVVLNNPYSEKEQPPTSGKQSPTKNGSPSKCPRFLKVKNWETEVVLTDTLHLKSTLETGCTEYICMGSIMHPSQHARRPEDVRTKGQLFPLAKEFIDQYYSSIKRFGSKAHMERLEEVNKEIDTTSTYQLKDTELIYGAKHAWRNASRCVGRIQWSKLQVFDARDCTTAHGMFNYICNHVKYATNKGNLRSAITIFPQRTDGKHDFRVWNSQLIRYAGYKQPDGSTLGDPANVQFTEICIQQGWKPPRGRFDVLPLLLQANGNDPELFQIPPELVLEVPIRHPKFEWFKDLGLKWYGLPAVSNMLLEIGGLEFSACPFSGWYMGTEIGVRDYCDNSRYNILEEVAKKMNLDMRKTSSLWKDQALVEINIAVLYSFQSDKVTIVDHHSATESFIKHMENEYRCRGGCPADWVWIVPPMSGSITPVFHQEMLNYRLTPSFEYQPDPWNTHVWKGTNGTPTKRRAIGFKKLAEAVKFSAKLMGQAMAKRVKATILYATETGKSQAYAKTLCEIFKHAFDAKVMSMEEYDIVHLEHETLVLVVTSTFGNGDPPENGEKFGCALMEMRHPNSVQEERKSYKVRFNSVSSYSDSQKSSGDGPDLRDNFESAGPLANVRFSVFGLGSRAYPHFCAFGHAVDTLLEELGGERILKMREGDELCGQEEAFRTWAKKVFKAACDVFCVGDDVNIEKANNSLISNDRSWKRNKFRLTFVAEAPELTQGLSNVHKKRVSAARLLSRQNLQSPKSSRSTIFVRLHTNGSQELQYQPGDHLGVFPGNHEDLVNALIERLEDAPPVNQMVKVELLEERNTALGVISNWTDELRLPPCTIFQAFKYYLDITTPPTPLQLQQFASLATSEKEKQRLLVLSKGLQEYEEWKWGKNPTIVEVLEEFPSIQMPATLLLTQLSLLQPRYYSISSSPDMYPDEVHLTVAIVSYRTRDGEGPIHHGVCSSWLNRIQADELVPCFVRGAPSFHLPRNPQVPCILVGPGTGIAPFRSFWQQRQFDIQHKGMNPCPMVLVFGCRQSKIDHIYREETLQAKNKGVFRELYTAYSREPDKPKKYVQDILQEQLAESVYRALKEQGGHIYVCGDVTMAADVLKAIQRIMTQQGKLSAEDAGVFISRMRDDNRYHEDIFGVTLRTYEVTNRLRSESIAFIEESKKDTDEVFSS

The term % inhibition denotes the relative decrease from the control value, in per cent. As to `N=C1CCCCCN1`, in the test on NO synthase (Table 3), the “% inhibition” value worked out at 96%.
Same read-out and setting: as for `N=C1CCCCCCN1`, the figure is 100%; as for `N=C1CCCCCCCN1`, 100%.
In the case of `CC1CCC(=N)N1` (centres unmarked) [Table 1: CH3, H, H], the “% inhibition” value in the test with NO synthase (Table 1) was 98%.
Same read-out and setting: as for `N=C1CCCN1` [Table 1: H, H, H], the figure is 90%.
On to `c1ccc(CNC2=NCCCCC2)cc1` [Table 2: CH2 -phenyl], for which the “% inhibition” value with NO synthase (Table 2) was 3%.
Same read-out and setting: as for `CCNC1=NCCCCC1` [Table 2: CH2 CH3], the figure is 55%; as for `CNC1=NCCCCC1` [Table 2: CH3], 3%.
The same measure, in the same setting: as for `C1CCN=C(NC2CCCCC2)CC1` [Table 2: cyclohexyl], the figure is 8%.
In general, pIC50 refers to −log10 of the IC50, conventionally taken in molar units. As to `N=C1CC[C@@H](CO)N1` [Table 4: H, H, (S)-CH2OH, H, H, 2-Imino-5-(S)-hydroxymethylpyrrolidine hydrochloride], the negative-log IC50 (pIC50) on iNOS (Table 4, read-out: IC50 iNOS) is at least 5.00; on ecNOS (Table 4, read-out: IC50 ecNOS) it was below 4.30; on ncNOS (Table 4, read-out: IC50 ncNOS), at least 4.30.
The corresponding values for `CCC1CCC(=N)N1` (centres unmarked) [Table 4: H, H, C2H5, H, H] are at least 4.30, at least 5.00 and at least 5.00.
Turning to `CC1CCC(N)=N1` (centres unmarked) [Table 4: H, H, CH3, H, H, 2-Imino-5-methylpyrrolidine hydrochloride], the pIC50 was at least 5.00 against iNOS; at least 5.00 on ecNOS (Table 4, read-out: IC50 ecNOS); at least 5.00 at ncNOS.
For the molecule `Oc1ccc(CCNC2=NCCC2)cc1O` [Table 4: H, H, H, H, C2 H4 Ph-3,4-(OH)2, 1-Aza-2-((3,4-dihydroxyphenyl)ethyl)amino-1-cyclopentene hydrochloride], the negative-log IC50 (pIC50) at iNOS (Table 4, read-out: IC50 iNOS) was below 4.30; at ecNOS (Table 4, read-out: IC50 ecNOS), below 4.30; at ncNOS (Table 4, read-out: IC50 ncNOS), below 4.30.
Regarding `NC1=NCCC1` [Table 4: H, H, H, H, H, 1-Aza-2-imino-cyclopentane hydrochloride], the pIC50 is at least 5.00 on iNOS (Table 4, read-out: IC50 iNOS); at least 5.00 against ecNOS; at least 5.00 against ncNOS.
For the molecule `CC(C)C1CN=C(N)C1` (centres unmarked) [Table 4: H, i-C3H7, H, H, H, 2-Imino-4-(2-methyl-ethyl)pyrrolidine hydrochloride], the pIC50 at iNOS (Table 4, read-out: IC50 iNOS) is at least 5.00; on ecNOS (Table 4, read-out: IC50 ecNOS), below 4.30; at ncNOS (Table 4, read-out: IC50 ncNOS), at least 4.30.
The like results for `CCCC1CC(N)=NC1CC` (centres unmarked) [Table 4: H, n-C3H7, C2H5, H, H, 2-Imino-5-ethyl-4-propylpyrrolidine hydrochloride] were, in that order, at least 4.30, below 4.30 and at least 4.30.
The like results for `CCCC1CC(N)=NC1C` (centres unmarked) [Table 4: H, n-C3H7, CH3, H, H, 2-Imino-5-methyl-4-propylpyrrolidine hydrochloride] were, in that order, at least 4.30, below 4.30 and at least 4.30.
The corresponding values for `CCCC1CN=C(N)C1` (centres unmarked) [Table 4: H, n-C3H7, H, H, H, 2-Imino-4-propylpyrrolidine hydrochloride] are at least 4.30, below 4.30 and below 4.30.
For the molecule `N=C1NCCC1S` (centres unmarked) [Table 4: SH, H, H, H, H], the negative logarithm of the IC50 (pIC50) at iNOS (Table 4, read-out: IC50 iNOS) was at least 4.30; at ecNOS (Table 4, read-out: IC50 ecNOS), at least 4.30; at ncNOS (Table 4, read-out: IC50 ncNOS), at least 6.00.
In the case of `NC1=NCCc2ccccc21` [Table 5: C, (CH)4, H, H, H, H], the pIC50 is at least 5.00 at iNOS (Table 5, read-out: IC50 iNOS); at least 4.30 at ecNOS (Table 5, read-out: IC50 ecNOS); at least 5.00 at ncNOS (Table 5, read-out: IC50 ncNOS).
For the molecule `CC1CNC(=N)C(C)C1` (centres unmarked) [Table 5: CH2, CH3, H, CH3, H, H, H, 2-Imino-3,5-dimethylpiperidine hydrochloride], the pIC50 was at least 4.30 at iNOS (Table 5, read-out: IC50 iNOS); at least 4.30 at ecNOS (Table 5, read-out: IC50 ecNOS); at least 6.00 on ncNOS (Table 5, read-out: IC50 ncNOS).
As to `CC1CCCN=C1N` (centres unmarked) [Table 5: CH2, CH3, H, H, H, H, H, 2-Imino-3-methylpiperidine hydrochloride], the pIC50 against iNOS was at least 5.00; at ecNOS it was at least 5.00; at ncNOS (Table 5, read-out: IC50 ncNOS), at least 6.00.
Take `CC1(C)CCC(=N)NC1` [Table 5: CH2, H, H, (CH3)2, H, H, H, 2-Imino-5,5-dimethylpiperidine hydrochloride]: the pIC50 on iNOS (Table 5, read-out: IC50 iNOS) is at least 5.00; at ecNOS (Table 5, read-out: IC50 ecNOS), at least 4.30; at ncNOS (Table 5, read-out: IC50 ncNOS) it was at least 5.00.
In the case of `NC1=Nc2ccccc2CC1` [Table 5: CH2, H, H, (CH)4, H, H, 3,4-Dihydro-2-aminoquinoline hydrochloride], the pIC50 on iNOS (Table 5, read-out: IC50 iNOS) is at least 4.30; at ecNOS (Table 5, read-out: IC50 ecNOS), below 4.30; on ncNOS (Table 5, read-out: IC50 ncNOS), at least 5.00.
Take `N=C1CCC(C(F)(F)F)CN1` (centres unmarked) [Table 5: CH2, H, H, CF3, H, H, H, 2-Imino-5-trifluoro-piperidine]: the negative logarithm of the IC50 (pIC50) on iNOS (Table 5, read-out: IC50 iNOS) was at least 5.00; at ecNOS (Table 5, read-out: IC50 ecNOS), below 4.30; on ncNOS (Table 5, read-out: IC50 ncNOS) it was below 4.30.
Regarding `CCCOC1CCC(=N)NC1` (centres unmarked) [Table 5: CH2, H, H, O-n-C3H7, H, H, H, 2-Imino-5-n-propyloxy-piperidine, acetic acid salt], the negative logarithm of the IC50 (pIC50) on iNOS (Table 5, read-out: IC50 iNOS) was at least 6.00; at ecNOS (Table 5, read-out: IC50 ecNOS) it was at least 5.00; at ncNOS (Table 5, read-out: IC50 ncNOS), at least 5.00.
As for `CC1C(=N)NCC2CCCC21` (stereo not drawn) [Table 5: CH, CH3, (CH2)3, H, H, H, 4-Imino-5-cis-methyl-3-azabicyclo[4.3.0]nonane, hydrochloride], the pIC50 is at least 5.00 at iNOS (Table 5, read-out: IC50 iNOS); below 4.30 at ecNOS (Table 5, read-out: IC50 ecNOS); at least 5.00 at ncNOS (Table 5, read-out: IC50 ncNOS).
With `CO[C@@H]1CNC(=N)C[C@@H]1C` [Table 5: CH, H, (S)CH3, (S)OCH3, H, H, H, hydrochloride], the negative-log IC50 (pIC50) was at least 6.00 at iNOS (Table 5, read-out: IC50 iNOS); at least 6.00 at ecNOS (Table 5, read-out: IC50 ecNOS); at least 6.00 at ncNOS (Table 5, read-out: IC50 ncNOS).
Turning to `C[C@H]1CC(=N)NC[C@H]1O` [Table 5: CH, H, (S)CH3, (S)OH, H, H, H, 2-Imino-5(S)-hydroxy-4(S)-methyl-piperidine, hydrochloride], the negative logarithm of the IC50 (pIC50) at iNOS (Table 5, read-out: IC50 iNOS) is at least 6.00; at ecNOS (Table 5, read-out: IC50 ecNOS), at least 5.00; on ncNOS (Table 5, read-out: IC50 ncNOS) it was at least 6.00.
For `CC1CNC(=N)CC1C` (centres unmarked) [Table 5: CH, H, CH3, CH3, H, H, H], the pIC50 is at least 6.00 on iNOS (Table 5, read-out: IC50 iNOS); at least 6.00 at ecNOS (Table 5, read-out: IC50 ecNOS); at least 6.00 at ncNOS (Table 5, read-out: IC50 ncNOS).
As for `CCCC1CCN=C(N)C1` (centres unmarked) [Table 5: CH, H, n-C3H7, H, H, H, H, 2-Imino-4-propylpiperidine hydrochloride], the pIC50 on iNOS (Table 5, read-out: IC50 iNOS) is at least 5.00; at ecNOS (Table 5, read-out: IC50 ecNOS), below 4.30; on ncNOS (Table 5, read-out: IC50 ncNOS) it was below 4.30.
With `CC(C)(C)OC(=O)N1CCNC(=N)C1` [Table 5: N, H, CO2-t-C4H9, H, H, H, H, 4-t-Butoxycarbonyl-2-iminopiperazine hydrochloride], the pIC50 at iNOS (Table 5, read-out: IC50 iNOS) was at least 4.30; on ecNOS (Table 5, read-out: IC50 ecNOS) it was below 4.30; on ncNOS (Table 5, read-out: IC50 ncNOS) it was below 4.30.
On to `N=C1CNC2CCCCC2N1` (centres unmarked) [Table 5: N, H, H, (CH2)4, H, H], for which the pIC50 against iNOS was at least 5.00; against ecNOS it was below 4.30; at ncNOS (Table 5, read-out: IC50 ncNOS) it was at least 4.30.
As for `N=C1CNCCN1` [Table 5: N, H, H, H, H, H, H, 2-Iminopiperazine hydrochloride], the pIC50 at iNOS (Table 5, read-out: IC50 iNOS) was at least 4.30; on ecNOS (Table 5, read-out: IC50 ecNOS), below 4.30; on ncNOS (Table 5, read-out: IC50 ncNOS), at least 4.30.
As to `N=C1CSCCN1` [Table 5: S, H, --, H, H, H, H, 3-Iminothiomorpholine hydrochloride], the pIC50 at iNOS (Table 5, read-out: IC50 iNOS) is at least 6.00; at ecNOS (Table 5, read-out: IC50 ecNOS), at least 5.00; on ncNOS (Table 5, read-out: IC50 ncNOS), at least 6.00.
For `N=C1CCCN1` [drawing 15], the “% inhibition” value in the test with NO synthase (Table 3) was determined as 90%.
As for `N=C1CCCCN1` [drawing 16], the “% inhibition” value in the test with NO synthase (Table 3) is 100%.

The record behind these values is patent US5629322A, “Cyclic amidine analogs as inhibitors of nitric oxide synthase” (priority 1995, dated 1997).
